Like-named read-outs stand apart in the source and are kept apart here.
Columns and labels:
human TLR7 = molecular target: T1, human TLR7 (Homo sapiens, UniProt Q9NYK1); test: HEK293 NFKB reporter assay, human TLR7; assay type: cell-based; details: HEK293 reporter cells expressing human TLR7, read-out: HEK293 hTLR7 EC50
T1 construct: host or cells: HEK293 reporter cells
T1 sequence (Q9NYK1 27-1049): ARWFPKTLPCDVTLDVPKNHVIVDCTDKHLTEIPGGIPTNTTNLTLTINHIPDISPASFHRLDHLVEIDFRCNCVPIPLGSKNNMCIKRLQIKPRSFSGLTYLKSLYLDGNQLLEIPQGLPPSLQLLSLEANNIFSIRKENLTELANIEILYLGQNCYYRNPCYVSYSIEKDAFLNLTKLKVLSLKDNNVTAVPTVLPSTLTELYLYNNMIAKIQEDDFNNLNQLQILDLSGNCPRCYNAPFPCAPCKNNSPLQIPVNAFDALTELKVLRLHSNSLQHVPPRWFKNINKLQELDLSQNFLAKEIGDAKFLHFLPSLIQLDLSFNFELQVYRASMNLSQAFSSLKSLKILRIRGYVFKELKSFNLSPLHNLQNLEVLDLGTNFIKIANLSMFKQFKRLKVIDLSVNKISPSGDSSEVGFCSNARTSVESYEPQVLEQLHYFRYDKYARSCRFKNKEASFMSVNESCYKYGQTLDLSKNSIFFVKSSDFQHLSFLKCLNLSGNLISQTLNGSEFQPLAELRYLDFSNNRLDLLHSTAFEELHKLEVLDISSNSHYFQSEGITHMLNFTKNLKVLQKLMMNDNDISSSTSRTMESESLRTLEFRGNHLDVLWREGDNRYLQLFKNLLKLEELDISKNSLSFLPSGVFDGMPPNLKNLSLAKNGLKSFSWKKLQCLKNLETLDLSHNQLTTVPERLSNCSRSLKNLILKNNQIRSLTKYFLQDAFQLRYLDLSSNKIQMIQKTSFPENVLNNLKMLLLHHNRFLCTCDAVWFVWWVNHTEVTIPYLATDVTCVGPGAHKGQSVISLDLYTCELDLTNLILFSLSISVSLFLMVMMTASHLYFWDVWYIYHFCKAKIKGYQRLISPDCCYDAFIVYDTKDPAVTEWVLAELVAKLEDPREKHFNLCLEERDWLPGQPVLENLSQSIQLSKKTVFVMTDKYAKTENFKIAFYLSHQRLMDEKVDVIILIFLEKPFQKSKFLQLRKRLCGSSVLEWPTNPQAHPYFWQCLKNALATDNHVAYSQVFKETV
Procedure: (§1) Each compound was synthesized and purified by the methods in the Examples provided herein, characterized by mass spectrometry, and shown to have the mass indicated. Activity against HEK293 NFKB reporter cells expressing human TLR7 or human TLR8 was measured according to Example 68.
(§2) HEK293 reporter cells expressing human TLR7 or human TLR8 were purchased from Invivogen and vendor protocols were followed for cellular propagation and experimentation. Briefly, cells were grown to 80-85% confluence at 5% CO2 in DMEM supplemented with 10% FBS, Zeocin, and Blasticidin. Cells were then seeded in 96-well flat plates at 4×10^4cells/well with substrate containing HEK detection medium and immunostimulatory molecules. Activity was measured using a plate reader at 620-655 nm wavelength.

human TLR8 = molecular target: T2, human TLR8 (Homo sapiens, UniProt Q9NR97); test: HEK293 NFKB reporter assay, human TLR8; assay type: cell-based; details: HEK293 reporter cells expressing human TLR8, read-out: HEK293 hTLR8 EC50
T2 construct: host or cells: HEK293 reporter cells
T2 sequence (Q9NR97 27-1041): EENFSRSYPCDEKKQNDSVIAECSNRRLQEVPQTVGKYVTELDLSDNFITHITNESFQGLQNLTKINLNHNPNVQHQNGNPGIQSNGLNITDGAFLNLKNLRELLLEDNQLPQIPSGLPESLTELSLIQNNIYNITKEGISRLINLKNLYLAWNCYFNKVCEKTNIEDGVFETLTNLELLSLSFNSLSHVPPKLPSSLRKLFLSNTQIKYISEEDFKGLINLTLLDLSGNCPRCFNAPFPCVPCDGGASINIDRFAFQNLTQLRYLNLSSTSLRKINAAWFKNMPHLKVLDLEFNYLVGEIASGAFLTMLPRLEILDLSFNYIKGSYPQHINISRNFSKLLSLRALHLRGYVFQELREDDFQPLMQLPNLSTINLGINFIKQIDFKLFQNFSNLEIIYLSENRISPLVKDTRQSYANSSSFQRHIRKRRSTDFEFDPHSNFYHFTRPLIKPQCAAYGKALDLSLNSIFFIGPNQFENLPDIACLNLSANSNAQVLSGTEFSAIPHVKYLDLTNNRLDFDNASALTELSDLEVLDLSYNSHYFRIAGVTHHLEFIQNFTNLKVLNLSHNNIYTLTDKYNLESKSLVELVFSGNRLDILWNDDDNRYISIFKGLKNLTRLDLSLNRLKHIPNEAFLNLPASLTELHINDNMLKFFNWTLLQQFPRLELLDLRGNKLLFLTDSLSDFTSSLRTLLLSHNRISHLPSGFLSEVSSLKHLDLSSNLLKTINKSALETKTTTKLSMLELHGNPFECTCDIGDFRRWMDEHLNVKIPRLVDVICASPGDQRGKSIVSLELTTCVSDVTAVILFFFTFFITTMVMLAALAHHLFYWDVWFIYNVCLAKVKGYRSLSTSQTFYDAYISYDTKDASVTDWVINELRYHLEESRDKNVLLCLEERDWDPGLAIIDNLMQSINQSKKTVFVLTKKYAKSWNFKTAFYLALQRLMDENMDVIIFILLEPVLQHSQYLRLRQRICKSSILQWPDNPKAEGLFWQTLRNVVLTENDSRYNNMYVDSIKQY
Procedure: as §1, §2

Row | EC50 (human TLR7; Table 1a) [µM] | EC50 (human TLR8; Table 1a) [nM] | EC50 (human TLR8; Table 1c) [nM] | SMILES | further results
1 | 0.571 | 106 |  | CCCN(CCCNC(=O)OC(C)(C)C)C(=O)C1=Cc2ccc(-c3cccc(S(=O)(=O)N4CC(CO)C4)c3)cc2N=C(N)C1 [Bz-1, tert-butyl N-[3-[[2-amino-8-[3-[3-(hydroxymethyl)azetidin-1-yl]sulfonylphenyl]-3H-1-benzazepine-4-carbonyl]-propyl-amino]propyl]carbamate] | 
2 | > 9 | 9760 |  | CCCN(CCC)C(=O)C1=Cc2ccc(-c3ccc(CN)c(S(=O)(=O)N4CC(CO)C4)c3)cc2N=C(N)C1 [Bz-2] | 
3 | 0.545 | 4310 |  | CCCN(CCCN(C)C(=O)OC(C)(C)C)C(=O)C1=Cc2ccc(-c3cccc(S(=O)(=O)N4CC(CO)C4)c3)cc2N=C(N)C1 [Bz-3, tert-butyl (3-(2-amino-8-(3-((3-(hydroxymethyl)azetidin-1-yl)sulfonyl)phenyl)-N-propyl-3H-benzo[b]azepine-4-carboxamido)propyl)(methyl)carbamate] | 
4 | 1.48 | 1680 |  | CCCN(CCCNC(=O)OC(C)(C)C)C(=O)C1=Cc2ccc(-c3ccc(C(=O)N4CCCC4)cc3)cc2N=C(N)C1 [Bz-4] | 
5 | 0.155 | 256 |  | CCCN(CCC)C(=O)C1=Cc2c(CCCCNC(=O)OC(C)(C)C)cc(-c3cccc(S(=O)(=O)N4CC(CO)C4)c3)cc2N=C(N)C1 [Bz-5, tert-butyl (4-(2-amino-4-(dipropylcarbamoyl)-8-(3-((3-(hydroxymethyl)azetidin-1-yl)sulfonyl)phenyl)-3H-benzo[b]azepin-6-yl)butyl)carbamate] | 
6 | > 9 | 265 |  | CCCN(CCC)C(=O)C1=Cc2ccc(-c3cccc(S(=O)(=O)N4CC(CNC(=O)OC(C)(C)C)C4)c3)cc2N=C(N)C1 [Bz-6, tert-butyl ((1-((3-(2-amino-4-(dipropylcarbamoyl)-3H-benzo[b]azepin-8-yl)phenyl)sulfonyl)azetidin-3-yl)methyl)carbamate] | 
7 | > 9 | 4.28 |  | CCCN(CCC)C(=O)C1=Cc2ccc(C(=O)Nc3cncc(CNC(=O)OC(C)(C)C)c3)cc2N=C(N)C1 [Bz-7] | 
8 | 3.37 | > 9000 |  | CCCN(CCCN(C)C(=O)OC(C)(C)C)C(=O)C1=Cc2ccc(-c3ccc(C(=O)N4CCCC4)cc3)cc2N=C(N)C1 [Bz-8] | 
9 | 8.65 | 629 |  | CCCN(CCCCCNC(=O)OC(C)(C)C)C(=O)C1=Cc2ccc(-c3cccc(S(=O)(=O)N4CC(CO)C4)c3)cc2N=C(N)C1 [Bz-9, tert-butyl N-[5-[[2-amino-8-[3-[3-(hydroxymethyl)azetidin-1-yl]sulfonylphenyl]-3H-1-benzazepine-4-carbonyl]-propyl-amino]pentyl]carbamate] | 
10 | > 9 | > 9000 |  | CCCN(CCNC(=O)OC(C)(C)C)C(=O)C1=Cc2ccc(-c3cccc(S(=O)(=O)N4CC(CO)C4)c3)cc2N=C(N)C1 [Bz-10, tert-butyl (2-(2-amino-8-(3-((3-(hydroxymethyl)azetidin-1-yl)sulfonyl)phenyl)-N-propyl-3H-benzo[b]azepine-4-carboxamido)ethyl)carbamate] | 
11 | 7.84 | 1390 |  | CCCN(CCCNC(=O)NC(C)(C)C)C(=O)C1=Cc2ccc(-c3cccc(S(=O)(=O)N4CC(CO)C4)c3)cc2N=C(N)C1 [Bz-11, 2-amino-N-[3-(tert-butylcarbamoylamino)propyl]-8-[3-[3-(hydroxymethyl)azetidin-1-yl]sulfonylphenyl]-N-propyl-3H-1-benzazepine-4-carboxamide] | 
12 | 2.49 | 2380 |  | CCCN(CCCNC(=O)Nc1cccc(C#N)c1)C(=O)C1=Cc2ccc(-c3cccc(S(=O)(=O)N4CC(CO)C4)c3)cc2N=C(N)C1 [Bz-12, 2-amino-N-[3-[(3-cyanophenyl)carbamoylamino]propyl]-8-[3-[3-(hydroxymethyl)azetidin-1-yl]sulfonylphenyl]-N-propyl-3H-1-benzazepine-4-carboxamide] | 
13 |  |  |  | CCCN(Cc1ccc(CN2CCN(C(=O)OC(C)(C)C)CC2)cc1)C(=O)C1=Cc2ccc(-c3cccc(S(=O)(=O)N4CC(CO)C4)c3)cc2N=C(N)C1 [Bz-30, tert-butyl 4-[[4-[[[2-amino-8-[3-[3-(hydroxymethyl)azetidin-1-yl]sulfonylphenyl]-3H-1-benzazepine-4-carbonyl]-propyl-amino]methyl]phenyl]methyl]piperazine-1-carboxylate] | EC50 (human TLR7; Table 1b): > 9 µM
14 |  |  |  | CCCN(Cc1ccc(CN2CCN(C(=O)OC(C)(C)C)CC2)cc1)C(=O)C1=Cc2ccc(-c3cccc(S(=O)(=O)N4CC(CO)C4)c3)cc2N=C(N)C1 [Bz-44] | EC50 (human TLR7; Table 1c): ≥ 9 µM
15 |  |  | 345 | CCCN(CCC)C(=O)C1=Cc2ccc(-c3c(C)n[nH]c3C)cc2N=C(N)C1 [Bz-45] | 
16 |  |  | 499 | CCCN(CCC)C(=O)C1=Cc2ccc(-c3c(C)nn(S(=O)(=O)N4CC(CO)C4)c3C)cc2N=C(N)C1 [Bz-48] | 
17 |  |  | 1320 | CCCN(CCC)C(=O)C1=Cc2ccc(-c3cccc(S(=O)(=O)N4CC5(CNC5)C4)c3)cc2N=C(N)C1 [Bz-52] | 
18 |  |  | 249 | CCCN(CCC)C(=O)C1=Cc2ccc(-c3cccc(S(=O)(=O)N4CC5(CCNC5)C4)c3)cc2N=C(N)C1 [Bz-53] | 
19 |  |  | 198 | CCCN(CCC)C(=O)C1=Cc2ccc(-c3cccc(S(=O)(=O)N4CCC(N)CC4)c3)cc2N=C(N)C1 [Bz-54] | 
20 |  |  | 111 | CCCN(CCC)C(=O)C1=Cc2ccc(-c3cccc(S(=O)(=O)N4[C@@H]5CNC[C@@H]54)c3)cc2N=C(N)C1 (stereo partly drawn) [Bz-56] | 
21 |  |  | 741 | CCCN(CCC)C(=O)C1=Cc2ccc(-c3cccc(S(=O)(=O)N4CCC5(CCNC5)C4)c3)cc2N=C(N)C1 (stereo not drawn) [Bz-57] | 
22 |  |  | 870 | CCCN(Cc1ccc(CN)cc1)C(=O)C1=Cc2ccccc2N=C(N)C1 [Bz-59] | 
23 |  |  | 288 | CCCN(CCOC)C(=O)C1=Cc2ccc(-c3cccc(S(=O)(=O)N4CC(CO)C4)c3)cc2N=C(N)C1 [Bz-60] | 
24 |  |  | 2750 | CCCN(NCC)C(=O)C1=Cc2ccc(-c3cccc(S(=O)(=O)N4CC(CO)C4)c3)cc2N=C(N)C1 [Bz-71] | 
25 |  |  | 4250 | CCCNN(CC)C(=O)C1=Cc2ccc(-c3cccc(S(=O)(=O)N4CC(CO)C4)c3)cc2N=C(N)C1 [Bz-72] | 
26 |  |  | 2560 | CCCN(CCC)C(=O)C1=Cc2ccc(CCCCCN)cc2N=C(N)C1 [Bz-74] | 
27 |  |  | 246 | CCCN(CCC(F)(F)F)C(=O)C1=Cc2ccc(C(=O)Nc3ccccc3)cc2N=C(N)C1 [Bz-75] | 
